Data as given in the CheMixHub ionic liquid set.

Test: xn = mol fraction of the nth substance listed

CCCCCCCC[N+](C)(C)C.[Br-] + O
298.15 K, 101 kPa
Conditions	viscosity [mPa·s]
x1 = 0.000891	0.9226
x1 = 0.001742	0.956
x1 = 0.002174	0.9692
x1 = 0.002616	0.9795
x1 = 0.003154	0.9978
x1 = 0.003538	1.012
x1 = 0.004276	1.036
x1 = 0.004645	1.048
x1 = 0.005039	1.058
x1 = 0.005479	1.076

CCCCCCn1cc[n+](CCCCCC)c1.O=S(=O)([N-]S(=O)(=O)C(F)(F)F)C(F)(F)F + O
100 kPa, x2 = 0.1489
Conditions	viscosity [mPa·s]
303.15 K	65.69
328.15 K	24.7

CCCC[P+](CCCC)(CCCC)CCCC.[Br-] + O
Conditions	viscosity [mPa·s]
298.15 K, 101 kPa, x1 = 0.09759	10.65

CC[n+]1ccn(C)c1.O=C([O-])C(F)(F)C(F)(F)C(F)(F)C(F)(F)F + O
101 kPa
Conditions	viscosity [mPa·s]
298.15 K, x1 = 0.02217	2.59
298.15 K, x1 = 0.1009	10.41
298.15 K, x1 = 0.2367	20.95
298.15 K, x1 = 0.4266	36.3
308.15 K, x1 = 0.03108	2.57
308.15 K, x1 = 0.04277	3.44
308.15 K, x1 = 0.08573	6
308.15 K, x1 = 0.1458	9.48
308.15 K, x1 = 0.2011	12.32
308.15 K, x1 = 0.2621	15.23
308.15 K, x1 = 0.3007	17.04
318.15 K, x1 = 0.02217	1.616
318.15 K, x1 = 0.1458	6.88
318.15 K, x1 = 0.1625	7.47

COCC[n+]1ccn(C)c1.C[C@@H](O)[C@H](N)C(=O)[O-] + O
100 kPa
Conditions	viscosity [mPa·s]
303.15 K, x1 = 0.5348	557
303.15 K, x1 = 0.6571	581
308.15 K, x1 = 0.3313	297
318.15 K, x1 = 0.5348	163.8
323.15 K, x1 = 0.4476	114.9
323.15 K, x1 = 0.5348	120.9
323.15 K, x1 = 0.6571	126.6

C[NH+](C)C.O=S(=O)([O-])O + O
298.15 K, 101 kPa
Conditions	viscosity [mPa·s]
x2 = 0.0727	4.98
x2 = 0.2456	4.64
x2 = 0.3339	4.43
x2 = 0.5675	3.69
x2 = 0.8484	2.18
x2 = 0.9552	1.3

[Br-].[PH3+]CCCCCCCCCCCCCC(c1ccccc1)(c1ccccc1)c1ccccc1 + O
300 K, 101 kPa
Conditions	electrical conductivity [S/m]
x2 = 0.503	0.00198
x2 = 0.603	0.00058
x2 = 0.802	0.00038

CC[n+]1ccn(C)c1.O=S(=O)([O-])C(F)(F)F + O + CC(=O)[O-].CC[n+]1ccn(C)c1
293.15 K, 100 kPa
Conditions	viscosity [mPa·s]
x2 = 0.337, x3 = 0.64	91
x2 = 0.341, x3 = 0.612	87
x2 = 0.348, x3 = 0.555	80
x2 = 0.359, x3 = 0.492	72

CC[NH+](C)CC.CS(=O)(=O)[O-] + O + CC[NH+](C)CC.O=S(=O)([O-])C(F)(F)F
101 kPa, x2 = 0.121, x3 = 0
Conditions	viscosity [mPa·s]
313.15 K	46.5
333.15 K	21.6
353.15 K	12.05

C[n+]1ccn(CCCC#N)c1.O=S(=O)([N-]S(=O)(=O)C(F)(F)F)C(F)(F)F + O=C1CCCO1
electrical conductivity [S/m], 100 kPa
Conditions	x1 = 0.1003	x1 = 0.2005	x1 = 0.3003	x1 = 0.4005	x1 = 0.4997	x1 = 0.6003	x1 = 0.7001	x1 = 0.8002	x1 = 0.9003	x1 = 1
288.15 K	0.668	0.774	0.578	0.43	0.309	0.225	0.151	0.11	0.077	0.061
293.15 K	0.731	0.838	0.635	0.482	0.353	0.266	0.186	0.141	0.101	0.083
298.15 K	0.794	0.908	0.696	0.54	0.405	0.312	0.226	0.176	0.132	0.112
303.15 K	0.862	0.976	0.76	0.603	0.46	0.365	0.272	0.217	0.169	0.146
308.15 K	0.933	1.05	0.827	0.669	0.522	0.424	0.324	0.265	0.212	0.185
313.15 K	1.01	1.122	0.897	0.741	0.59	0.487	0.383	0.319	0.262	0.231
318.15 K	1.08	1.2	0.971	0.817	0.662	0.556	0.448	0.379	0.319	0.285
323.15 K	1.16	1.28	1.05	0.899	0.741	0.633	0.519	0.448	0.384	0.346
328.15 K	1.242	1.36	1.128	0.987	0.825	0.714	0.599	0.521	0.455	0.414
333.15 K	1.33	1.444	1.21	1.08	0.915	0.799	0.686	0.606	0.536	0.491
338.15 K	1.416	1.532	1.3	1.18	1.015	0.896	0.782	0.695	0.625	0.575
343.15 K	1.508	1.622	1.39	1.28	1.115	0.996	0.884	0.793	0.719	0.669
